Measured values published in ChEMBL document CHEMBL1130975, “Preparation of alpha-keto ester enol acetates as potential prodrugs of human neutrophil elastase inhibitors” (Bioorg Med Chem Lett, 1998).
One block for each compound: values may come before it.

How the values were obtained:
Neutrophil elastase = target: T1, Neutrophil elastase (Homo sapiens, UniProt P08246); experiment: Tested for rate of substrate hydrolysis in the presence of human neutrophil elastase
T1 sequence (P08246 whole entry): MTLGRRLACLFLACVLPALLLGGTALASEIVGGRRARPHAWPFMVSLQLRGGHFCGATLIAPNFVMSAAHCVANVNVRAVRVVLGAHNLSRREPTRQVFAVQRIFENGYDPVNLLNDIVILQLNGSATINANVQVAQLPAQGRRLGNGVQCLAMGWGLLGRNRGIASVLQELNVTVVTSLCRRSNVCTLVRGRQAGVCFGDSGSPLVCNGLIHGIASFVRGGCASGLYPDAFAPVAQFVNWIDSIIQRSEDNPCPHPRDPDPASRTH

[1] = target: T2, Neutrophil elastase (Homo sapiens) (UniProt P08246); experiment: Tested for rate of substrate hydrolysis in the presence of human neutrophil elastase at a concentration of 10 nM
T2 sequence (whole entry): T1 sequence (P08246 whole entry)

[2] = target: T2, Neutrophil elastase (Homo sapiens); experiment: Tested for rate of substrate hydrolysis in the presence of human neutrophil elastase at a concentration of 45 nM
[3] = target: T3, S-formylglutathione hydrolase (Sus scrofa) (UniProt Q9GJT2); conditions: 45 nM
T3 sequence (whole entry): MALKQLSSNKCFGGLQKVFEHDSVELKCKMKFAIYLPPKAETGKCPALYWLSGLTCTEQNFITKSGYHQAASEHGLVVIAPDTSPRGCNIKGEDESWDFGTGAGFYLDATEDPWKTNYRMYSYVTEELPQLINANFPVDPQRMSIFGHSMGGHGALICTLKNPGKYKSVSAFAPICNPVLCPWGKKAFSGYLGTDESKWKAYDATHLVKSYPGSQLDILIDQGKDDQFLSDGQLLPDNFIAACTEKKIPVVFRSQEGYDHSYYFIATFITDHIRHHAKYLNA
Description: Tested for rate of substrate hydrolysis in the presence of porcine kidney esterase at a concentration of 45 nM

[4] = target: T3, S-formylglutathione hydrolase (Sus scrofa); conditions: 10 nM
Description: Tested for rate of substrate hydrolysis in the presence of porcine kidney esterase at a concentration of 10 nM

[5] = target: T3, S-formylglutathione hydrolase (Sus scrofa); experiment: Tested for rate of substrate hydrolysis in the presence of porcine kidney esterase at a concentration of 9 uM
[6] = target: T2, Neutrophil elastase (Homo sapiens); experiment: Tested for rate of substrate hydrolysis in the presence of human neutrophil elastase at a concentration of 1 uM
[7] = target: T2, Neutrophil elastase (Homo sapiens); experiment: Tested for rate of substrate hydrolysis in the presence of human neutrophil elastase at a concentration of 9 uM
[8] = target: T3, S-formylglutathione hydrolase (Sus scrofa); experiment: Tested for rate of substrate hydrolysis in the presence of porcine kidney esterase at a concentration of 1 uM

Ki (Neutrophil elastase): 200 nM
Structure (SMILES): COC(=O)CCC(=O)N[C@@H](C)C(=O)N[C@@H](C)C(=O)N1CCC[C@H]1C(=O)N[C@H](C(=O)C(=O)OC)C(C)C

Rate [1]: 99%
Rate [2]: 94%
Rate [3]: 37%
Rate [4]: 76%
Structure (SMILES): COC(=O)/C(OC(C)=O)=C(\NC(=O)[C@@H]1CCCN1C(=O)[C@H](C)NC(=O)[C@H](C)NC(=O)c1ccc(C(=O)NS(=O)(=O)c2ccc(Cl)cc2)cc1)C(C)C

Ki (Neutrophil elastase): 2 nM
Structure (SMILES): COC(=O)C(=O)[C@@H](NC(=O)C1CCCN1C(=O)[C@H](C)NC(=O)[C@H](C)NC(=O)c1ccc(C(=O)NS(=O)(=O)c2ccc(Cl)cc2)cc1)C(C)C (stereo not given in full)

Rate [5]: 2.8%
Rate [6]: 81%
Rate [7]: 35%
Rate [8]: 24%
Structure (SMILES): COC(=O)CCC(=O)N[C@@H](C)C(=O)N[C@@H](C)C(=O)N1CCC[C@H]1C(=O)N/C(=C(/OC(C)=O)C(=O)OC)C(C)C
